Source: publication PMC11420776 (RSC Advances, 2024)

Tests used:
CCRF-CEM (leukemia) = assay: NCI 60-cell one-dose antiproliferative screen; format: cell-based, human; conditions: one dose 10 μM
RPMI-8226 (leukemia) = assay: NCI 60-cell one-dose antiproliferative screen; format: cell-based, human; conditions: one dose 10 μM
[1] = system: A549/ATCC (NSC lung cancer); assay: NCI 60-cell one-dose antiproliferative screen; format: cell-based, human; conditions: one dose 10 μM
EKVX (NSC lung cancer) = assay: NCI 60-cell one-dose antiproliferative screen; format: cell-based, human; conditions: one dose 10 μM
HOP-62 (NSC lung cancer) = assay: NCI 60-cell one-dose antiproliferative screen; format: cell-based, human; conditions: one dose 10 μM
HOP-92 (NSC lung cancer) = assay: NCI 60-cell one-dose antiproliferative screen; format: cell-based, human; conditions: one dose 10 μM
[2] = system: NCI-H226 (NSC lung cancer); assay: NCI 60-cell one-dose antiproliferative screen; format: cell-based, human; conditions: one dose 10 μM
[3] = system: NCI-H23 (NSC lung cancer); assay: NCI 60-cell one-dose antiproliferative screen; format: cell-based, human; conditions: one dose 10 μM
[4] = system: NCI-H322M (NSC lung cancer); assay: NCI 60-cell one-dose antiproliferative screen; format: cell-based, human; conditions: one dose 10 μM
[5] = system: NCI-H460 (NSC lung cancer); assay: NCI 60-cell one-dose antiproliferative screen; format: cell-based, human; conditions: one dose 10 μM
[6] = system: NCI-H522 (NSC lung cancer); assay: NCI 60-cell one-dose antiproliferative screen; format: cell-based, human; conditions: one dose 10 μM
COLO-205 (colon cancer) = assay: NCI 60-cell one-dose antiproliferative screen; format: cell-based, human; conditions: one dose 10 μM
HCC-2998 (colon cancer) = assay: NCI 60-cell one-dose antiproliferative screen; format: cell-based, human; conditions: one dose 10 μM
HCT-116 (colon cancer) = assay: NCI 60-cell one-dose antiproliferative screen; format: cell-based, human; conditions: one dose 10 μM
HCT-15 (colon cancer) = assay: NCI 60-cell one-dose antiproliferative screen; format: cell-based, human; conditions: one dose 10 μM
HT29 (colon cancer) = assay: NCI 60-cell one-dose antiproliferative screen; format: cell-based, human; conditions: one dose 10 μM
KM12 (colon cancer) = assay: NCI 60-cell one-dose antiproliferative screen; format: cell-based, human; conditions: one dose 10 μM
SW-620 (colon cancer) = assay: NCI 60-cell one-dose antiproliferative screen; format: cell-based, human; conditions: one dose 10 μM
SF-268 (CNS cancer) = assay: NCI 60-cell one-dose antiproliferative screen; format: cell-based, human; conditions: one dose 10 μM
SF-295 (CNS cancer) = assay: NCI 60-cell one-dose antiproliferative screen; format: cell-based, human; conditions: one dose 10 μM
SF-539 (CNS cancer) = assay: NCI 60-cell one-dose antiproliferative screen; format: cell-based, human; conditions: one dose 10 μM
SNB-19 (CNS cancer) = assay: NCI 60-cell one-dose antiproliferative screen; format: cell-based, human; conditions: one dose 10 μM
SNB-75 (CNS cancer) = assay: NCI 60-cell one-dose antiproliferative screen; format: cell-based, human; conditions: one dose 10 μM
U251 (CNS cancer) = assay: NCI 60-cell one-dose antiproliferative screen; format: cell-based, human; conditions: one dose 10 μM
LOX IMIV (melanoma) = assay: NCI 60-cell one-dose antiproliferative screen; format: cell-based, human; conditions: one dose 10 μM
MALME-3M (melanoma) = assay: NCI 60-cell one-dose antiproliferative screen; format: cell-based, human; conditions: one dose 10 μM
M14 (melanoma) = assay: NCI 60-cell one-dose antiproliferative screen; format: cell-based, human; conditions: one dose 10 μM
MDA-MB-435 (melanoma) = assay: NCI 60-cell one-dose antiproliferative screen; format: cell-based, human; conditions: one dose 10 μM
SK-MEL-2 (melanoma) = assay: NCI 60-cell one-dose antiproliferative screen; format: cell-based, human; conditions: one dose 10 μM
SK-MEL-28 (melanoma) = assay: NCI 60-cell one-dose antiproliferative screen; format: cell-based, human; conditions: one dose 10 μM
UACC-257 (melanoma) = assay: NCI 60-cell one-dose antiproliferative screen; format: cell-based, human; conditions: one dose 10 μM
UACC-62 (melanoma) = assay: NCI 60-cell one-dose antiproliferative screen; format: cell-based, human; conditions: one dose 10 μM
IGROV1 (ovarian cancer) = assay: NCI 60-cell one-dose antiproliferative screen; format: cell-based, human; conditions: one dose 10 μM
OVCAR-3 (ovarian cancer) = assay: NCI 60-cell one-dose antiproliferative screen; format: cell-based, human; conditions: one dose 10 μM
OVCAR-4 (ovarian cancer) = assay: NCI 60-cell one-dose antiproliferative screen; format: cell-based, human; conditions: one dose 10 μM
OVCAR-5 (ovarian cancer) = assay: NCI 60-cell one-dose antiproliferative screen; format: cell-based, human; conditions: one dose 10 μM
OVCAR-8 (ovarian cancer) = assay: NCI 60-cell one-dose antiproliferative screen; format: cell-based, human; conditions: one dose 10 μM
[7] = system: NCI/ADR-RES (ovarian cancer); assay: NCI 60-cell one-dose antiproliferative screen; format: cell-based, human; conditions: one dose 10 μM
SK-OV-3 (ovarian cancer) = assay: NCI 60-cell one-dose antiproliferative screen; format: cell-based, human; conditions: one dose 10 μM
786-0 (renal cancer) = assay: NCI 60-cell one-dose antiproliferative screen; format: cell-based, human; conditions: one dose 10 μM
A498 (renal cancer) = assay: NCI 60-cell one-dose antiproliferative screen; format: cell-based, human; conditions: one dose 10 μM
ACHN (renal cancer) = assay: NCI 60-cell one-dose antiproliferative screen; format: cell-based, human; conditions: one dose 10 μM
CAKI-1 (renal cancer) = assay: NCI 60-cell one-dose antiproliferative screen; format: cell-based, human; conditions: one dose 10 μM
RXF 393 (renal cancer) = assay: NCI 60-cell one-dose antiproliferative screen; format: cell-based, human; conditions: one dose 10 μM
SN12C (renal cancer) = assay: NCI 60-cell one-dose antiproliferative screen; format: cell-based, human; conditions: one dose 10 μM
TK-10 (renal cancer) = assay: NCI 60-cell one-dose antiproliferative screen; format: cell-based, human; conditions: one dose 10 μM
UO-31 (renal cancer) = assay: NCI 60-cell one-dose antiproliferative screen; format: cell-based, human; conditions: one dose 10 μM
PC-3 (prostate cancer) = assay: NCI 60-cell one-dose antiproliferative screen; format: cell-based, human; conditions: one dose 10 μM
DU-145 (prostate cancer) = assay: NCI 60-cell one-dose antiproliferative screen; format: cell-based, human; conditions: one dose 10 μM
MCF7 (breast cancer) = assay: NCI 60-cell one-dose antiproliferative screen; format: cell-based, human; conditions: one dose 10 μM
[8] = system: MDA-MB-231/ATCC (breast cancer); assay: NCI 60-cell one-dose antiproliferative screen; format: cell-based, human; conditions: one dose 10 μM
HS 578T (breast cancer) = assay: NCI 60-cell one-dose antiproliferative screen; format: cell-based, human; conditions: one dose 10 μM
T-47D (breast cancer) = assay: NCI 60-cell one-dose antiproliferative screen; format: cell-based, human; conditions: one dose 10 μM
[9] = system: MDA-MB-468 (breast cancer); assay: NCI 60-cell one-dose antiproliferative screen; format: cell-based, human; conditions: one dose 10 μM
[10] = system: 60 human tumor cell lines; assay: NCI 60-cell one-dose antiproliferative screen, whole panel; format: cell-based

CC(=O)NNc1ccc2nnc(-c3ccccc3)n2n1 [Compound 6a, N′-(3-Phenyl-[1,2,4]triazolo[4,3-b]pyridazin-6-yl)acetohydrazide]
GI% (CCRF-CEM (leukemia)): — (— GI% is below 15%) | GI% (RPMI-8226 (leukemia)): — (— GI% is below 15%) | GI% [1]: — (— GI% is below 15%) | GI% (EKVX (NSC lung cancer)): — (— GI% is below 15%) | GI% (HOP-62 (NSC lung cancer)): — (— GI% is below 15%) | GI% (HOP-92 (NSC lung cancer)): — (— GI% is below 15%) | GI% [2]: — (— GI% is below 15%) | GI% [3]: — (— GI% is below 15%) | GI% [4]: — (— GI% is below 15%) | GI% [5]: — (— GI% is below 15%) | GI% [6]: — (— GI% is below 15%) | GI% (COLO-205 (colon cancer)): — (— GI% is below 15%) | GI% (HCC-2998 (colon cancer)): — (— GI% is below 15%) | GI% (HCT-116 (colon cancer)): — (— GI% is below 15%) | GI% (HCT-15 (colon cancer)): — (— GI% is below 15%) | GI% (HT29 (colon cancer)): — (— GI% is below 15%) | GI% (KM12 (colon cancer)): — (— GI% is below 15%) | GI% (SW-620 (colon cancer)): — (— GI% is below 15%) | GI% (SF-268 (CNS cancer)): — (— GI% is below 15%) | GI% (SF-295 (CNS cancer)): — (— GI% is below 15%) | GI% (SF-539 (CNS cancer)): — (— GI% is below 15%) | GI% (SNB-19 (CNS cancer)): — (— GI% is below 15%) | GI% (SNB-75 (CNS cancer)): — (— GI% is below 15%) | GI% (U251 (CNS cancer)): — (— GI% is below 15%) | GI% (LOX IMIV (melanoma)): — (— GI% is below 15%) | GI% (MALME-3M (melanoma)): — (— GI% is below 15%) | GI% (M14 (melanoma)): — (— GI% is below 15%) | GI% (MDA-MB-435 (melanoma)): — (— GI% is below 15%) | GI% (SK-MEL-2 (melanoma)): — (— GI% is below 15%) | GI% (SK-MEL-28 (melanoma)): — (— GI% is below 15%) | GI% (UACC-257 (melanoma)): — (— GI% is below 15%) | GI% (UACC-62 (melanoma)): — (— GI% is below 15%) | GI% (IGROV1 (ovarian cancer)): — (— GI% is below 15%) | GI% (OVCAR-3 (ovarian cancer)): — (— GI% is below 15%) | GI% (OVCAR-4 (ovarian cancer)): — (— GI% is below 15%) | GI% (OVCAR-5 (ovarian cancer)): — (— GI% is below 15%) | GI% (OVCAR-8 (ovarian cancer)): — (— GI% is below 15%) | GI% [7]: — (— GI% is below 15%) | GI% (SK-OV-3 (ovarian cancer)): — (— GI% is below 15%) | GI% (786-0 (renal cancer)): — (— GI% is below 15%) | GI% (A498 (renal cancer)): — (— GI% is below 15%) | GI% (ACHN (renal cancer)): — (— GI% is below 15%) | GI% (CAKI-1 (renal cancer)): — (— GI% is below 15%) | GI% (RXF 393 (renal cancer)): — (— GI% is below 15%) | GI% (SN12C (renal cancer)): — (— GI% is below 15%) | GI% (TK-10 (renal cancer)): — (— GI% is below 15%) | GI% (UO-31 (renal cancer)): — (— GI% is below 15%) | GI% (PC-3 (prostate cancer)): — (— GI% is below 15%) | GI% (DU-145 (prostate cancer)): — (— GI% is below 15%) | GI% (MCF7 (breast cancer)): — (— GI% is below 15%) | GI% [8]: — (— GI% is below 15%) | GI% (HS 578T (breast cancer)): — (— GI% is below 15%) | GI% (T-47D (breast cancer)): — (— GI% is below 15%) | GI% [9]: — (— GI% is below 15%) | inhibition at 10 µM ([10]; Homo sapiens, 60 cell, read-out: Mean inhibition (mean GI%)): < 15% | cytotoxic activity in words ([10]; NCI-60 panel, one dose 10 μM): demolished cytotoxicity
